Source: patent US20060069132A1, “Azolecarboxamide herbicides” (priority 2004, published 2006)

Key:
barnyardgrass [1] = assay: Test B flooded paddy test; format: in vivo, Echinochloa crus-galli; settings: 1000 g ai/ha, visual rating, scale 0 to 100 (0 no effect, 100 complete control), 13 to 15 days
In short: (§1)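 Scale 0–100: zero equals no visible effect, 100 complete control, judged by eye relative to controls. Timing: 13 to 15 days in greenhouse post-treatment. Growth stage at spraying: two leaves (paddy) or one to four leaves, 2–18 cm (postemergence).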

rice [2] = assay: Test B flooded paddy test; format: in vivo, Oryza sativa; settings: 1000 g ai/ha, visual rating, scale 0 to 100 (0 no effect, 100 complete control), 13 to 15 days
In short: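 Visual ratings, 0 (no effect) to 100 (complete control), made versus controls after 13–15 d greenhouse. Paddy plants treated at 2-leaf stage; postemergence plants at 1- to 4-leaf stage, 2–18 cm tall.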

morningglory [3] = assay: Test B pre-/postemergence herbicide test; format: in vivo, Ipomoea coccinea
In short: (§2)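 Formulation: non-phytotoxic solvent mix with surfactant. Timing: preemergence on seed and postemergence on 2–18 cm plants, applied concurrently. Readout after 13–15 d greenhouse: visual 0–100 control rating against controls.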

wild oat = assay: Test B postemergence herbicide test; format: in vivo, Avena fatua; settings: scale 0 (no effect) to 100 (complete control)
In short: (§3)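 Read-out: visual comparison with controls, scored 0 to 100, where 100 means complete control and 0 no effect. Formulated chemicals were applied postemergence to plants 2–18 cm tall (1- to 4-leaf), or to flooded-paddy plants at the 2-leaf stage, then held 13 to 15 days under glass.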

cocklebur = assay: Test B pre-/postemergence herbicide test; format: in vivo, Xanthium strumarium
In short: as §2

ducksalad = assay: Test B flooded paddy test; format: in vivo, Heteranthera limosa; settings: 1000 g ai/ha, visual rating, scale 0 to 100 (0 no effect, 100 complete control), 13 to 15 days
In short: as §1

wheat = assay: Test B postemergence herbicide test; format: in vivo, Triticum aestivum; design: key to Wheat plant response rating: 0 = no effect, 100 = complete control; settings: scale 0 (no effect) to 100 (complete control)
In short: as §3

barnyardgrass [4] = assay: Test A pre-/postemergence herbicide test; format: in vivo, Echinochloa crus-galli; settings: for Plant response rating, Barnyardgrass: Postemergence; for Barnyardgrass plant response rating: Preemergence
In short: (§4)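 Seeds sown in sandy loam received a preemergence directed soil spray of compound in non-phytotoxic solvent with surfactant; postemergence plants (2–10 cm, one- to two-leaf stage) were sprayed to runoff at the same time. After ~10 days in greenhouse, injury was rated visually versus untreated controls (0 = no effect, 100 = complete control).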

lambsquarters = assay: Test B pre-/postemergence herbicide test; format: in vivo, Chenopodium album; settings: scale 0 (no effect) to 100 (complete control)
In short: (§5)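 Seeds were planted and treated preemergence with compounds formulated in a non-phytotoxic solvent mixture containing surfactant, while plants at the 1- to 4-leaf stage (2 to 18 cm) received postemergence sprays. Flooded paddy plants were grown to the 2-leaf stage. After 13 to 15 days in a greenhouse, injury was visually rated 0–100 against untreated controls.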

[5] = tested on: small flower umbrella sedge; assay: Test B flooded paddy test; format: in vivo, Cyperus difformis; settings: 1000 g ai/ha, visual rating, scale 0 to 100 (0 no effect, 100 complete control), 13 to 15 days
In short: as §1

pigweed = assay: Test B pre-/postemergence herbicide test; format: in vivo, Amaranthus retroflexus
In short: as §5

morningglory [6] = assay: Test A pre-/postemergence herbicide test; format: in vivo, Ipomoea spp.; settings: for Plant response rating, Morningglory: Postemergence; for Morningglory plant response rating: Preemergence
In short: as §4

blackgrass = assay: Test B postemergence herbicide test; format: in vivo, Alopecurus myosuroides; settings: scale 0 (no effect) to 100 (complete control)
In short: as §1

large crabgrass [7] = assay: Test B pre-/postemergence herbicide test; format: in vivo, Digitaria sanguinalis
In short: as §5

Surinam grass = assay: Test B pre-/postemergence herbicide test; format: in vivo, Urochloa decumbens
In short: as §5

giant foxtail [8] = assay: Test B pre-/postemergence herbicide test; format: in vivo, Setaria faberi
In short: as §5

velvetleaf [9] = assay: Test A pre-/postemergence herbicide test; format: in vivo, Abutilon theophrasti; settings: for Velvetleaf plant response rating: Preemergence, visual rating, 0 to 100 scale (0 no effect, 100 complete control)
In short: as §4

corn = assay: Test B pre-/postemergence herbicide test; format: in vivo, Zea mays
In short: as §5

redroot pigweed = assay: Test A pre-/postemergence herbicide test; format: in vivo, Amaranthus retroflexus; settings: for Plant response rating, Pigweed: Postemergence; for Pigweed plant response rating: Preemergence
In short: as §4

velvetleaf [10] = assay: Test B pre-/postemergence herbicide test; format: in vivo, Abutilon theophrasti
In short: as §5

barnyardgrass [11] = assay: Test B pre-/postemergence herbicide test; format: in vivo, Echinochloa crus-galli
In short: as §2

rice [12] = assay: Test B pre-/postemergence herbicide test; format: in vivo, Oryza sativa; settings: preemergence, 125 g ai/ha; 0 to 100 scale, 0 is no effect, 100 is complete control
In short: as §5

large crabgrass [13] = assay: Test A pre-/postemergence herbicide test; format: in vivo, Digitaria sanguinalis; settings: for Plant response rating, Crabgrass, Large: Postemergence; for Crabgrass, Large plant response rating: Preemergence
In short: as §4

giant foxtail [14] = assay: Test A pre-/postemergence herbicide test; format: in vivo, Setaria faberi; settings: for Plant response rating, Foxtail, Giant: Postemergence; for Foxtail, Giant plant response rating: Preemergence
In short: as §4

[15] = Postemergence, 500 g ai/ha, visual rating after 13 to 15 days, scale 0 (no effect) to 100 (complete control)
[16] = postemergence, 125 g ai/ha, visual rating, scale 0 (no effect) to 100 (complete control)
[17] = preemergence, 125 g ai/ha, 0 to 100 scale, 0 is no effect, 100 is complete control
[18] = Postemergence, 500 g ai/ha, visual rating after 13 to 15 days
[19] = postemergence, 125 g ai/ha, visual rating
[20] = Preemergence, 500 g ai/ha, scale 0 to 100
[21] = 500 g ai/ha, 0 to 100 scale, 0 no effect, 100 complete control
[22] = 2000 g ai/ha, 0 to 100 scale, 0 no effect, 100 complete control
[23] = 500 g ai/ha, visual rating, 0 to 100 scale (0 no effect, 100 complete control)

CCOC(=O)c1ccc(F)c(NC(=O)c2cc(C(C)(C)C)nn2CC)c1 [Compound 70]
Barnyardgrass plant response rating (barnyardgrass [1]): 10
Rice plant response rating (rice [2]): 10
Plant response rating, Morningglory (morningglory [3]; [15]): 30
Morningglory plant response rating (morningglory [3]; [16]): 20
Plant response rating, Morningglory (morningglory [3]; [17]): 10
Plant response rating, Oat, Wild (wild oat; [18]): 20
Oat, Wild plant response rating (wild oat; [19]): 20
Plant response rating, Cocklebur (cocklebur; [15]): 100
Cocklebur plant response rating (cocklebur; [20]): 0
Cocklebur plant response rating (cocklebur; [16]): 50
Plant response rating, Cocklebur (cocklebur; [17]): 0
Ducksalad plant response rating (ducksalad): 0
Plant response rating, Wheat (wheat; [18]): 20
Wheat plant response rating (wheat; [19]): 10
Plant response rating, Barnyardgrass (barnyardgrass [4]; [21]): 25
Plant response rating, Barnyardgrass (barnyardgrass [4]; [22]): 30
Barnyardgrass plant response rating (barnyardgrass [4]; [23]): 20
Barnyardgrass plant response rating (barnyardgrass [4]; [22]): 20
Plant response rating, Lambsquarters (lambsquarters; [18]): 80
Lambsquarters plant response rating (lambsquarters; [19]): 80
Sedge, Umbrella plant response rating [5]: 30
Plant response rating, Pigweed (pigweed; [15]): 50
Pigweed plant response rating (pigweed; [16]): 30
Plant response rating, Pigweed (pigweed; [17]): 30
Plant response rating, Morningglory (morningglory [6]; [21]): 25
Plant response rating, Morningglory (morningglory [6]; [22]): 30
Morningglory plant response rating (morningglory [6]; [23]): 20
Morningglory plant response rating (morningglory [6]; [22]): 10
Plant response rating, Blackgrass (blackgrass; [18]): 20
Blackgrass plant response rating (blackgrass; [19]): 10
Plant response rating, Crabgrass, Large (large crabgrass [7]; [15]): 20
Crabgrass, Large plant response rating (large crabgrass [7]; [20]): 100
Crabgrass, Large plant response rating (large crabgrass [7]; [16]): 20
Plant response rating, Crabgrass, Large (large crabgrass [7]; [17]): 100
Plant response rating, Surinam Grass (Surinam grass; [15]): 20
Surinam Grass plant response rating (Surinam grass; [16]): 20
Plant response rating, Surinam Grass (Surinam grass; [17]): 40
Plant response rating, Foxtail, Giant (giant foxtail [8]; [15]): 30
Foxtail, Giant plant response rating (giant foxtail [8]; [20]): 100
Foxtail, Giant plant response rating (giant foxtail [8]; [16]): 20
Plant response rating, Foxtail, Giant (giant foxtail [8]; [17]): 90
Plant response rating, Velvetleaf (velvetleaf [9]; Postemergence, 2000 g ai/ha, 0 to 100 scale, 0 no effect, 100 complete control): 30
Velvetleaf plant response rating (velvetleaf [9]; 500 g ai/ha): 10
Velvetleaf plant response rating (velvetleaf [9]; 2000 g ai/ha): 20
Plant response rating, Corn (corn; [15]): 20
Corn plant response rating (corn; [20]): 20
Corn plant response rating (corn; [16]): 20
Plant response rating, Corn (corn; [17]): 10
Plant response rating, Pigweed (redroot pigweed; [21]): 60
Plant response rating, Pigweed (redroot pigweed; [22]): 75
Pigweed plant response rating (redroot pigweed; [23]): 0
Pigweed plant response rating (redroot pigweed; [22]): 5
Plant response rating, Velvetleaf (velvetleaf [10]; [15]): 60
Velvetleaf plant response rating (velvetleaf [10]; [16]): 20
Plant response rating, Velvetleaf (velvetleaf [10]; [17]): 30
Plant response rating, Barnyardgrass (barnyardgrass [11]; [15]): 20
Barnyardgrass plant response rating (barnyardgrass [11]; [20]): 50
Barnyardgrass plant response rating (barnyardgrass [11]; [16]): 20
Plant response rating, Barnyardgrass (barnyardgrass [11]; [17]): 40
Plant response rating, Rice (rice [12]): 0
Plant response rating, Crabgrass, Large (large crabgrass [13]; [21]): 25
Plant response rating, Crabgrass, Large (large crabgrass [13]; [22]): 30
Crabgrass, Large plant response rating (large crabgrass [13]; [23]): 35
Crabgrass, Large plant response rating (large crabgrass [13]; [22]): 45
Plant response rating, Foxtail, Giant (giant foxtail [14]; [21]): 20
Plant response rating, Foxtail, Giant (giant foxtail [14]; [22]): 20
Foxtail, Giant plant response rating (giant foxtail [14]; [23]): 40
Foxtail, Giant plant response rating (giant foxtail [14]; [22]): 55
